Test results reported in patent publication EP4653016A1, “CONJUGATE OF ERIBULIN DRUG” (SystImmune, Inc., priority 2023, dated 2024).

Columns and labels:
Assay in all cases: Cytotoxicity of compounds to tumor cell lines (MTS, 5 days)
Format in all cases: cell-based
[1] = test system: A431(human epidermal carcinoma cells); settings: A-431, 120 h, A431, 5 days
Procedure: (§1) In the present invention, various human-derived tumor cell lines (BxPC-3 (human orthotopic pancreatic adenocarcinoma cell), SW620 (human colon cancer cell), H1975 (human lung adenocarcinoma cell), HCC827 (human lung adenocarcinoma cell), FaDu (human pharyngeal squamous cell carcinoma cell) and A431(human epidermal carcinoma cells)) were used as experimental models to evaluate the cytotoxicity of compound to tumor cell lines. A certain number of tumor cells were seeded into a 96-well plate. After the cells adhered to the wall, gradient dilutions of tested compounds were added to the test cells, followed by incubation at 37 °C and 5% CO2 for 5 days. Cell viability was measured using MTS, and the inhibitory effect of the control compounds and the tested compounds on the tumor cell lines was evaluated byIC50. The compound with a starting concentration of 4000 nM was diluted 7 folds, with a total of 8 concentration points. […] Table 5: In vitro pharmacodynamic activity of control compounds and tested compounds in human-derived tumor cell lines BxPC-3, SW620 and H1975: […]

[2] = test system: BxPC-3 (human orthotopic pancreatic adenocarcinoma cell); settings: for IC50: Homo sapiens, 120 h, BxPC-3, 5 days, MTS; for anti-tumor effects: in words, BxPC-3, SW620, H1975, HCC827, FaDu and A431 cell models
Procedure: as §1

[3] = test system: H1975 (human lung adenocarcinoma cell); settings: NCI-H1975, 120 h, H1975, 5 days
Procedure: as §1

[4] = test system: FaDu (human pharyngeal squamous cell carcinoma cell); settings: 120 h
Procedure: as §1

[5] = test system: HCC827 (human lung adenocarcinoma cell); settings: 120 h, HCC827, 5 days
Procedure: as §1

[6] = test system: SW620 (human colon cancer cell); settings: SW-620, 120 h, SW620, 5 days
Procedure: as §1

For `C=C1C[C@@H]2CC[C@@]34C[C@H]5O[C@H]6[C@@H](O3)[C@H]3O[C@H](CC[C@@H]3O[C@H]6[C@H]5O4)CC(=O)C[C@@H]3[C@@H](OC)[C@@H](C[C@H](O)CNC)O[C@H]3C[C@H]3O[C@@H](CC[C@@H]1O2)C[C@@H](C)C3=C` [D-2], the IC50 [1] was 20 pM, the IC50 [2] was 30 pM and the IC50 [3] was 250 pM. The IC50 [4] was 370 pM, the IC50 [5] was 25 pM and the IC50 [6] was 1250 pM.

With `C=C1C[C@@H]2CC[C@@]34C[C@H]5O[C@H]6[C@@H](O3)[C@H]3O[C@H](CC[C@@H]3O[C@H]6[C@H]5O4)CC(=O)C[C@@H]3[C@@H](OC)[C@@H](C[C@H](O)CN(C)C(=O)OC(C)(C)C)O[C@H]3C[C@H]3O[C@@H](CC[C@@H]1O2)C[C@@H](C)C3=C` [D-3] the IC50 [1] was < 5 pM, the IC50 [2] was < 5 pM and the anti-tumor effects [2] was “the best effects”. For the same compound, the IC50 [3] was < 5 pM, the IC50 [4] was < 5 pM and the IC50 [5] was < 5 pM. The IC50 [6] was < 5 pM.

`C=C1C[C@@H]2CC[C@@]34C[C@H]5O[C@H]6[C@@H](O3)[C@H]3O[C@H](CC[C@@H]3O[C@H]6[C@H]5O4)CC(=O)C[C@@H]3[C@@H](OC)[C@@H](C[C@H](O)CN)O[C@H]3C[C@H]3O[C@@H](CC[C@@H]1O2)C[C@@H](C)C3=C` [D-4(eribulin), eribulin] showed an IC50 [1] of 30 pM, an IC50 [2] of 60 pM and an IC50 [3] of 390 pM. It also gave an IC50 [4] of 730 pM, an IC50 [5] of 50 pM and an IC50 [6] of 2560 pM.

In the case of `C=CCOC(=O)N(C)C[C@@H](O)C[C@H]1O[C@H]2C[C@H]3O[C@@H](CC[C@@H]4O[C@@H](CC[C@@]56C[C@H]7O[C@H]8[C@@H](O5)[C@H]5O[C@H](CC[C@@H]5O[C@H]8[C@H]7O6)CC(=O)C[C@@H]2[C@H]1OC)CC4=C)C[C@@H](C)C3=C` [D-7], the IC50 [1] is reported as < 5 pM, the IC50 [2] is reported as < 5 pM and the anti-tumor effects [2] is reported as “the best effects”. The IC50 [3] was 10 pM, the IC50 [4] was 10 pM and the IC50 [5] was < 5 pM. The IC50 [6] was < 5 pM.

For `C=C1C[C@@H]2CC[C@@]34C[C@H]5O[C@H]6[C@@H](O3)[C@H]3O[C@H](CC[C@@H]3O[C@H]6[C@H]5O4)CC(=O)C[C@@H]3[C@@H](OC)[C@@H](C[C@H](O)CN(C)C(=O)OCc4ccccc4)O[C@H]3C[C@H]3O[C@@H](CC[C@@H]1O2)C[C@@H](C)C3=C` [D-8], the IC50 [1] was < 5 pM, the IC50 [2] was < 5 pM and the anti-tumor effects [2] was “the best effects”. For the same compound, the IC50 [3] was < 5 pM, the IC50 [4] was < 5 pM and the IC50 [5] was < 5 pM. The IC50 [6] was < 5 pM.

In the case of `C=C1C[C@@H]2CC[C@@]34C[C@H]5O[C@H]6[C@@H](O3)[C@H]3O[C@H](CC[C@@H]3O[C@H]6[C@H]5O4)CC(=O)C[C@@H]3[C@@H](OC)[C@@H](C[C@H](O)CN(C)C(=O)c4ccccc4)O[C@H]3C[C@H]3O[C@@H](CC[C@@H]1O2)C[C@@H](C)C3=C` [D-9], the IC50 [1] is reported as < 5 pM, the IC50 [2] is reported as < 5 pM and the anti-tumor effects [2] is reported as “the best effects”. For the same compound, the IC50 [3] was < 5 pM, the IC50 [4] was < 5 pM and the IC50 [5] was < 5 pM. For the same compound, the IC50 [6] was < 5 pM.

With `C=C1C[C@@H]2CC[C@@]34C[C@H]5O[C@H]6[C@@H](O3)[C@H]3O[C@H](CC[C@@H]3O[C@H]6[C@H]5O4)CC(=O)C[C@@H]3[C@@H](OC)[C@@H](C[C@H](O)CN(C)C(=O)C(C)C)O[C@H]3C[C@H]3O[C@@H](CC[C@@H]1O2)C[C@@H](C)C3=C` [D-11] the IC50 [1] was 20 pM, the IC50 [2] was 10 pM and the IC50 [3] was 60 pM. The IC50 [4] was 80 pM, the IC50 [5] was 10 pM and the IC50 [6] was 150 pM.

In the case of `C=C1C[C@@H]2CC[C@@]34C[C@H]5O[C@H]6[C@@H](O3)[C@H]3O[C@H](CC[C@@H]3O[C@H]6[C@H]5O4)CC(=O)C[C@@H]3[C@@H](OC)[C@@H](C[C@H](O)CN(C)C(=O)C(C)(C)C)O[C@H]3C[C@H]3O[C@@H](CC[C@@H]1O2)C[C@@H](C)C3=C` [D-12], the IC50 [1] is reported as < 5 pM, the IC50 [2] is reported as < 5 pM and the anti-tumor effects [2] is reported as “the best effects”. The IC50 [3] was < 5 pM, the IC50 [4] was < 5 pM and the IC50 [5] was < 5 pM. For the same compound, the IC50 [6] was < 5 pM.

In the case of `C=C1C[C@@H]2CC[C@@]34C[C@H]5O[C@H]6[C@@H](O3)[C@H]3O[C@H](CC[C@@H]3O[C@H]6[C@H]5O4)CC(=O)C[C@@H]3[C@@H](OC)[C@@H](C[C@H](O)CNC(=O)OC(C)(C)C)O[C@H]3C[C@H]3O[C@@H](CC[C@@H]1O2)C[C@@H](C)C3=C` [D-13], the IC50 [1] is reported as < 5 pM, the IC50 [2] is reported as < 5 pM and the anti-tumor effects [2] is reported as “the best effects”. The IC50 [3] was < 5 pM, the IC50 [4] was < 5 pM and the IC50 [5] was < 5 pM. The IC50 [6] was < 5 pM.

`C=C1C[C@@H]2CC[C@@]34C[C@H]5O[C@H]6[C@@H](O3)[C@H]3O[C@H](CC[C@@H]3O[C@H]6[C@H]5O4)CC(=O)C[C@@H]3[C@@H](OC)[C@@H](C[C@H](O)CN(C)S(C)(=O)=O)O[C@H]3C[C@H]3O[C@@H](CC[C@@H]1O2)C[C@@H](C)C3=C` [D-14] was tested, and the IC50 [1] was 10 pM, the IC50 [2] was 10 pM and the IC50 [3] was 100 pM. The IC50 [4] was 160 pM, the IC50 [5] was 10 pM and the IC50 [6] was 190 pM.

Work on `C=C1C[C@@H]2CC[C@@]34C[C@H]5O[C@H]6[C@@H](O3)[C@H]3O[C@H](CC[C@@H]3O[C@H]6[C@H]5O4)CC(=O)C[C@@H]3[C@@H](OC)[C@@H](C[C@H](O)CN(C)C(=O)C(F)F)O[C@H]3C[C@H]3O[C@@H](CC[C@@H]1O2)C[C@@H](C)C3=C` [D-15] yielded an IC50 [1] of 20 pM, an IC50 [2] of 30 pM and an IC50 [3] of 140 pM. For the same compound, the IC50 [4] was 330 pM, the IC50 [5] was 20 pM and the IC50 [6] was 690 pM.

Compound `C=C1C[C@@H]2CC[C@@]34C[C@H]5O[C@H]6[C@@H](O3)[C@H]3O[C@H](CC[C@@H]3O[C@H]6[C@H]5O4)CC(=O)C[C@@H]3[C@@H](OC)[C@@H](C[C@H](O)CNC(=O)[C@H]4C[C@@H](OC)C4)O[C@H]3C[C@H]3O[C@@H](CC[C@@H]1O2)C[C@@H](C)C3=C` [D-21] has an IC50 [1] of 120 pM, an IC50 [2] of 50 pM and an IC50 [3] of 240 pM. For the same compound, the IC50 [4] was 390 pM, the IC50 [5] was 40 pM and the IC50 [6] was 240 pM.
